Assays:
L. monocytogenes = experiment: Effect of acriflavin on hemolytic activity of L. monocytogenes; format: cell-based
Bacillus spp. = experiment: Inhibition of Bacillus spp. by acriflavin; format: cell-based

## Acriflavin
L. monocytogenes
  Effect on hemolytic activity of L. monocytogenes: inhibits the hemolytic activity of L. monocytogenes
Bacillus spp.
  Inhibition of Bacillus spp.: consistently inhibits all of the Bacillus spp.
